# Data: patent publication US9718796B2, “Substituted benzoazepines as toll-like receptor modulators” (VENTIRX PHARMACEUTICALS, INC., priority 2011, dated 2017)
# Like-named read-outs stand apart in the source and are kept apart here.
# Target: T1, hTLR8 (Homo sapiens, UniProt Q9NR97)
# T1 construct: host or cells: HEK293 cells stably transfected with hTLR8
# T1 sequence (Q9NR97 27-1041): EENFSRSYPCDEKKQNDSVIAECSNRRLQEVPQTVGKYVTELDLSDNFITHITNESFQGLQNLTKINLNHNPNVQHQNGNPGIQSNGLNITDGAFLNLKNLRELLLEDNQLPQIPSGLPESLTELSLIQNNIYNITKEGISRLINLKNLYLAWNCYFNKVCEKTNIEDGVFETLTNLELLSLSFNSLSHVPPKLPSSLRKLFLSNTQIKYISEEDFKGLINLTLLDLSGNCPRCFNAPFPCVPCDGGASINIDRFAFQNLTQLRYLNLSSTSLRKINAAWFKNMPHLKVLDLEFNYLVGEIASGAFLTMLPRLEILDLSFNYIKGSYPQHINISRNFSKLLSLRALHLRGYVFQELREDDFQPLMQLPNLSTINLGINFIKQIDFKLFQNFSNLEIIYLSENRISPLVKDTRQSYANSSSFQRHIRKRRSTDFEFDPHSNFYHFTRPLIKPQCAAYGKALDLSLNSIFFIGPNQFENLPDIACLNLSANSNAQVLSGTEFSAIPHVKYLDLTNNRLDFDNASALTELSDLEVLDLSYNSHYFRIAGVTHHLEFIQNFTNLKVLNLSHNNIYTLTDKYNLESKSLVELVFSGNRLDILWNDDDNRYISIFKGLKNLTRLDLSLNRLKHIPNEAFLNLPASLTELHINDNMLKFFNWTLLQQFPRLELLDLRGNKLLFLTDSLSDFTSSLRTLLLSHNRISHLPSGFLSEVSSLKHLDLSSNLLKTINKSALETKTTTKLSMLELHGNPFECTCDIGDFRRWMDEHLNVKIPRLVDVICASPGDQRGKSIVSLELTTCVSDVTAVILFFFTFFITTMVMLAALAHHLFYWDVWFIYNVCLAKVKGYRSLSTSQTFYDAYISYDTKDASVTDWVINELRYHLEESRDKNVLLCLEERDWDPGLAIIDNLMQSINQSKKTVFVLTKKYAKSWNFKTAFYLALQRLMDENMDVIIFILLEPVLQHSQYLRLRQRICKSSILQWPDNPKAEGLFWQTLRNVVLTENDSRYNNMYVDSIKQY
# Assay: HEK-293 hTLR8 transfectant antagonist assay (NF-κB driven SEAP reporter)
# Type: cell-based
# Conditions: hTLR8 reporter cells
# Experimental: The HEK-293 hTLR transfectant assay employs HEK293 cells stably transfected with various hTLRs and transiently co-transfected with a plasmid containing an NF-κB driven secreted embryonic alkaline phosphate (SEAP) reporter gene. Stimulation of TLRs activates their downstream signaling pathways and induces nuclear translocation of the transcription factor NF-κB. Reporter gene activity is then measured using a spectrophotometric assay. To measure antagonist activity, human embryonic kidney (HEK) cells (e.g., 293XL-hTLR8 cells available from InvivoGen, San Diego, Calif.) are prepared according to supplier's instructions and incubated with various concentrations of test compound overnight. The amount of induced […] is measured by reading the absorbance at 650 nm. The compounds of the invention have an MC50 of 25 μM or less, wherein MC50 is defined as the concentration at which 50% of maximum induction is seen. For the TLR8 antagonist assays, cells are transiently transfected with the reporter gene on Day 1 per the supplier's instructions. Antagonist compounds are added to the cultures on Day 2 followed by addition of a TLR8 agonist approximately 2 hours later. Cultures are incubated overnight and SEAP activity is measured on Day 3. In a typical assay, 50,000 HEK239 hTLR8 cells are seeded per culture well and transiently transfected with the SEAP reporter gene. Antagonists are added to cultures in culture medium and […] DMSO over a concentration range of 0.1 nanomolar to 10 micromolar. TLR8 agonists are added to cultures 2 hours later at a fixed concentration (e.g., 1 micromolar or 10 micromolar of Compound A) and cultures are then incubated for 16-24 hrs at 37° C. in a humidified CO incubator. Antagonists are also evaluated for activity in the absence of agonist. TLR8 antagonist activity was measured in a hTLR8 assay format, measuring IC50 values. […] IC50s were then calculated.
# [1] = IC50, nM, vs. 3M002 1 μM, agonist 3M002 1 μM
# [2] = IC50, nM, vs. 3M002 10 μM, agonist 3M002 10 μM
# [3] = IC50, nM, vs. VTX-378 1 μM, TLR8 agonist VTX-378 (Compound A) 1 μM
# [4] = TLR8 agonist VTX-378 (Compound A) 0.5 μM, read-out: IC50, nM, vs. VTX-378 0.5 μM
# [5] = IC50, nM, vs. VTX-378 10 μM, TLR8 agonist VTX-378 (Compound A) 10 μM
SMILES,IC50 [1] [nM],IC50 [2] [nM],IC50 [3] [nM],IC50 [4] [nM],IC50 [5] [nM]
CCOC(=O)C1=Cc2cc(Oc3ccccc3C)ccc2N=C(N)C1 [Compound 3128],< 1000,1000 to 10000,1000 to 10000,< 1000,–
"CCCN(CC(N)=O)C(=O)C1=Cc2cc(-c3ccc(NC(=O)OCC)cc3Cl)ccc2N=C(N)C1 [Compound 3336, Ethyl (4-{2-amino-4-[(2-amino-2-oxoethyl)(propyl)carbamoyl)-3H-1-benzazepin-7-yl}-3-chlorophenyl)carbamate]",< 1000,1000 to 10000,1000 to 10000,< 1000,–
CCOC(=O)C1=Cc2cc(-c3ccc(C(=O)N4CCCC4)cc3Cl)ccc2N=C(N)C1 [Compound 3322],–,< 1000,< 1000,< 1000,–
CCOC(=O)C1=Cc2cc(Nc3ccccc3)ccc2N=C(N)C1 [Compound 3097],–,1000 to 10000,1000 to 10000,< 1000,–
"CC(C)NC(=O)C1=Cc2cc(-c3ccc(C(=O)N4CCCC4)cc3)ccc2N=C(N)C1 [Compound 3009, 2-Amino-N-isopropyl-7-[4-(pyrrolidin-1-ylcarbonyl)phenyl]-3H-1-benzazepine-4-carboxamide]",–,–,1000 to 10000,–,≥ 10000
"CCOC(=O)C1=Cc2cc(-c3ccc(N4CCOC4=O)cc3)ccc2N=C(N)C1 [Compound 3300, Ethyl 2-amino-7-[4-(2-oxo-1,3-oxazolidin-3-yl)phenyl]-3H-1-benzazepine-4-carboxylate]",< 1000,< 1000,< 1000,< 1000,–
"CCOC(=O)C1=Cc2cc(-c3cccc(Cl)c3Cl)ccc2N=C(N)C1 [Compound 3155, Ethyl 2-amino-7-(2,3-dichlorophenyl)-3H-1-benzazepine-4-carboxylate]",–,–,≥ 10000,1000 to 10000,–
"CCOC(=O)C1=Cc2cc(-c3ccc(N4CCCC4=O)cc3)ccc2N=C(N)C1 [Compound 3190, Ethyl 2-amino-7-[4-(2-oxopyrrolidin-1-yl)phenyl]-3H-1-benzazepine-4-carboxylate]",–,–,1000 to 10000,< 1000,–
NC1=Nc2ccc(-c3ccc(C(=O)N4CCCC4)cc3)cc2C=C(Br)C1 [Compound 3444],–,–,< 1000,< 1000,–
"CCCN(CC(N)=O)C(=O)C1=Cc2cc(-c3ccc(C(=O)N4CCCC4)cc3Cl)ccc2N=C(N)C1 [Compound 3342, 2-Amino-N-(2-amino-2-oxoethyl)-7-[2-chloro-4-(pyrrolidin-1-ylcarbonyl)phenyl]-N-propyl-3H-1-benzazepine-4-carboxamide]",–,< 1000,< 1000,< 1000,–
"CCOC(=O)C1=Cc2cc(-c3ccc(C)cc3)ccc2N=C(N)C1 [Compound 3272, Ethyl 2-amino-7-(4-methylphenyl)-3H-1-benzazepine-4-carboxylate]",< 1000,1000 to 10000,1000 to 10000,1000 to 10000,–
CCOC(=O)C1=Cc2cc(Oc3ccc(OC)cc3)ccc2N=C(N)C1 [Compound 3125],1000 to 10000,≥ 10000,1000 to 10000,1000 to 10000,–
"CCOC(=O)C1=Cc2cc(-c3cccc(OC)c3Cl)ccc2N=C(N)C1 [Compound 3386, Ethyl 2-amino-7-(2-chloro-3-methoxyphenyl)-3H-1-benzazepine-4-carboxylate]",–,–,< 1000,< 1000,–

# The next lines start with the values.
IC50 [1] [nM],IC50 [2] [nM],IC50 [3] [nM],IC50 [4] [nM],IC50 [5] [nM],SMILES
< 1000,1000 to 10000,1000 to 10000,< 1000,–,"CCOC(=O)C1=Cc2cc(-c3ccc(NC(=O)N(C)C)cc3)ccc2N=C(N)C1 [Compound 3290, Ethyl 2-amino-7-{4-[(dimethylcarbamoyl)amino]phenyl}-3H-1-benzazepine-4-carboxylate]"
–,–,< 1000,–,≥ 10000,"CCOC(=O)C1=Cc2cc(-c3ccc(C(=O)N(C)C)cc3)ccc2N=C(N)C1 [Compound 2937, Ethyl 2-amino-7-[4-(dimethylcarbamoyl)phenyl]-3H-1-benzazepine-4-carboxylate]"
–,–,1000 to 10000,–,≥ 10000,"CCOC(=O)C1=Cc2cc(-c3cccc(C(=O)N(C)C)c3)ccc2N=C(N)C1 [Compound 3058, Ethyl 2-amino-7-[3-(dimethylcarbamoyl)phenyl]-3H-1-benzazepine-4-carboxylate]"
< 1000,1000 to 10000,1000 to 10000,< 1000,–,"CCOC(=O)C1=Cc2cc(-c3ccccc3C(F)(F)F)ccc2N=C(N)C1 [Compound 3126, Ethyl 2-amino-7-[2-(trifluoromethyl)phenyl]-3H-1-benzazepine-4-carboxylate]"
–,≥ 10000,1000 to 10000,–,≥ 10000,"CCOC(=O)C1=Cc2cc(-c3cccc(C(F)(F)F)c3)ccc2N=C(N)C1 [Compound 3059, Ethyl 2-amino-7-[3-(trifluoromethyl)phenyl]-3H-1-benzazepine-4-carboxylate]"
–,–,1000 to 10000,< 1000,–,"CCOC(=O)C1=Cc2cc(-c3ccccc3C(C)C)ccc2N=C(N)C1 [Compound 3141, Ethyl 2-amino-7-(2-isopropylphenyl)-3H-1-benzazepine-4-carboxylate]"
–,1000 to 10000,≥ 10000,1000 to 10000,–,"CCOC(=O)C1=Cc2cc(-c3ccc(OC)cc3)ccc2N=C(N)C1 [Compound 3098, Ethyl 2-amino-7-(4-methoxyphenyl)-3H-1-benzazepine-4-carboxylate]"
–,–,1000 to 10000,1000 to 10000,–,CCOC(=O)C1=Cc2cc(-c3c(C)cccc3C)ccc2N=C(N)C1 [Compound 3162]
–,–,< 1000,< 1000,–,"CCOC(=O)Nc1ccc(-c2ccc3c(c2)C=C(C(=O)OCC)CC(N)=N3)cc1 [Compound 3199, Ethyl 2-amino-7-{4-[(ethoxycarbonyl)amino]phenyl}-3H-1-benzazepine-4-carboxylate]"
–,–,1000 to 10000,1000 to 10000,–,"CCOC(=O)C1=Cc2cc(-c3cccc(C)c3Cl)ccc2N=C(N)C1 [Compound 3294, Ethyl 2-amino-7-(2-chloro-3-methylphenyl)-3H-1-benzazepine-4-carboxylate]"
–,–,1000 to 10000,1000 to 10000,≥ 10000,CCOC(=O)C1=Cc2cc(-c3ccc(C(=O)N4CCCC4)cc3)ccc2N=C(NCCO)C1 [Compound 2968]
–,< 1000,< 1000,< 1000,–,"CCOC(=O)C1=Cc2cc(-c3ccccc3OC)ccc2N=C(N)C1 [Compound 3264, Ethyl 2-amino-7-(2-methoxyphenyl)-3H-1-benzazepine-4-carboxylate]"
–,–,≥ 10000,–,≥ 10000,CCOC(=O)C1=Cc2cc(-c3ccc(C(=O)N4CCCC4)cc3)ccc2N=C(NOC)C1 [Compound 2930]
–,1000 to 10000,1000 to 10000,1000 to 10000,–,"CCOC(=O)C1=Cc2cc(-c3cccc(OC)c3)ccc2N=C(N)C1 [Compound 3267, Ethyl 2-amino-7-(3-methoxyphenyl)-3H-1-benzazepine-4-carboxylate]"
–,–,1000 to 10000,–,≥ 10000,"CCOC(=O)C1=Cc2cc(-c3ccccc3C)ccc2N=C(N)C1 [Compound 3096, Ethyl 2-amino-7-(2-methylphenyl)-3H-1-benzazepine-4-carboxylate]"
